Earlier results in patent publication US20230190748A1, “COMPOSITIONS FOR TREATMENT OF AGED DISEASES” (GERO PTE. LTD., priority 2020, published 2023).

Experiments:
HER2/ErbB2 = HER2/ErbB2 (Homo sapiens, UniProt P04626); conditions: class symbols + to ++++ and √; legend not given
EGFR/ErbB1 = EGFR/ErbB1 (Homo sapiens, UniProt P00533); conditions: class symbols + to ++++ and √; legend not given
[1] = white to brownish yellow powder

Sequence of EGFR/ErbB1 (P00533 25-1210): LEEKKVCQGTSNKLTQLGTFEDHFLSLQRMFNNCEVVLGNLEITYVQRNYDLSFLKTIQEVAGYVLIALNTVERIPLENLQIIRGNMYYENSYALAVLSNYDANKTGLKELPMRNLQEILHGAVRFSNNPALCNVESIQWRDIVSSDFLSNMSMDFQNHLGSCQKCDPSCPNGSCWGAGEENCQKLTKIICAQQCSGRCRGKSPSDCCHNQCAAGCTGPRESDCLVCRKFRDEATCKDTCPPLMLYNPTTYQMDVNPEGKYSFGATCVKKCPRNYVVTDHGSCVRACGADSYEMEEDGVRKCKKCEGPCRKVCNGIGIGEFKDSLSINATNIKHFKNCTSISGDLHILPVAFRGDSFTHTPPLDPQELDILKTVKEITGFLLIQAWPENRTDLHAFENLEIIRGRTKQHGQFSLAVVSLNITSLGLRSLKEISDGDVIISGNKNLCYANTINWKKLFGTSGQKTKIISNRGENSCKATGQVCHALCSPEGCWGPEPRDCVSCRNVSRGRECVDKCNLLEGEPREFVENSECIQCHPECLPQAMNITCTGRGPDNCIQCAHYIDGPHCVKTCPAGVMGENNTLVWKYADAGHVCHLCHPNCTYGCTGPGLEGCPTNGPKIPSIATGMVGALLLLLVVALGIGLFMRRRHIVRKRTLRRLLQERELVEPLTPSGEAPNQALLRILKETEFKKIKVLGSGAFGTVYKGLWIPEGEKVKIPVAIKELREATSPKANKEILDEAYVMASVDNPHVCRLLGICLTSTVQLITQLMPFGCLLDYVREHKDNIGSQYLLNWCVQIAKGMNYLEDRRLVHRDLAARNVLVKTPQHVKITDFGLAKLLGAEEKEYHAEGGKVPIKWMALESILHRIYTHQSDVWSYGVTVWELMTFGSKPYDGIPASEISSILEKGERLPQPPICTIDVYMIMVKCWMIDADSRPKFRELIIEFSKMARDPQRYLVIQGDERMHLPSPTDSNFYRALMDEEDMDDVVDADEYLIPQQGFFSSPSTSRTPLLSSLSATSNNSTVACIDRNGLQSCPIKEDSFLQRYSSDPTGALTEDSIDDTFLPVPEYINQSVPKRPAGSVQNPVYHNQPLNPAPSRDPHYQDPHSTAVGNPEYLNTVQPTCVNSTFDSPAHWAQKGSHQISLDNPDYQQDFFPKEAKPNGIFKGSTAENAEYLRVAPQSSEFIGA
Sequence of HER2/ErbB2 (P04626 23-1255): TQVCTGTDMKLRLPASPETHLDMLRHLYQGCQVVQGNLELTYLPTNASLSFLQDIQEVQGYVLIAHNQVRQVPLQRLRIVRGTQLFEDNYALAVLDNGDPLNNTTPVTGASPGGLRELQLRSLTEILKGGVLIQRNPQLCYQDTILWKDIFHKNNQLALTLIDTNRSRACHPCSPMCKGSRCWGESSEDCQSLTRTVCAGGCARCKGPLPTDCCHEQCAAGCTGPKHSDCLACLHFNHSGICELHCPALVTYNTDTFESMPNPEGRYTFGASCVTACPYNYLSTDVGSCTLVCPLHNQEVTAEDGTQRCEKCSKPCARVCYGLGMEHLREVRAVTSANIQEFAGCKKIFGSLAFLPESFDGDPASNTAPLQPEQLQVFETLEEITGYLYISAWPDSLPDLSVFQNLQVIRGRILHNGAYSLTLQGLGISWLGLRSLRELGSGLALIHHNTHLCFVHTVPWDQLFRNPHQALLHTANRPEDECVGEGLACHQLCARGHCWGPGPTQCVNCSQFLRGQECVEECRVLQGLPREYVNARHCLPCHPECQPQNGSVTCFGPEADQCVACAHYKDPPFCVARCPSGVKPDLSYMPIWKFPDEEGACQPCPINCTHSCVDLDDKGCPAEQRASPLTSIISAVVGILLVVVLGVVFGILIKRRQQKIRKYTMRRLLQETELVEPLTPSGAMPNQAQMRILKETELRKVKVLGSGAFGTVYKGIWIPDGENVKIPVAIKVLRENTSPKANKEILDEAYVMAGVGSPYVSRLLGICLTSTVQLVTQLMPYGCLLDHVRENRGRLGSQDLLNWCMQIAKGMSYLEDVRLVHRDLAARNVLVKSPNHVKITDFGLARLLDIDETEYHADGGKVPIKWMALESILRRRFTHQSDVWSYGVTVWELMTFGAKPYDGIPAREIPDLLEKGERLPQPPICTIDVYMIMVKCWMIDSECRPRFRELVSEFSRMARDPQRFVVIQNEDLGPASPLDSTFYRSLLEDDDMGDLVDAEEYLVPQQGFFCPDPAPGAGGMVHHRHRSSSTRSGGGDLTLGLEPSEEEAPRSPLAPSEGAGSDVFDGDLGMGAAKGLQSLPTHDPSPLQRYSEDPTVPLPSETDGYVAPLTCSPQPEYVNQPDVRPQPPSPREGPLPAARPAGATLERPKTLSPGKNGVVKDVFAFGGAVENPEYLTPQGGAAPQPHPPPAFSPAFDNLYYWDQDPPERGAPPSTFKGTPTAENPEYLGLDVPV

Compound | EGFR/ErbB1 (EGFR/ErbB1) | also measured
Cc1cc(Nc2ncnc3ccc(-c4ccc(CNCCS(C)(=O)=O)o4)cc23)ccc1Oc1ccn2ncnc2c1 [HER2-Inhibitor-1] |  | HER2/ErbB2 (HER2/ErbB2): √
Cc1cc(O)c2c(c1)C(=O)c1cccc(O)c1C2=O [Chrysophanic Acid] | √ | 
CN(C)C/C=C/C(=O)Nc1cc2c(Nc3ccc(F)c(Cl)c3)ncnc2cc1O[C@H]1CCOC1.O=C(O)/C=C\C(=O)O.O=C(O)/C=C\C(=O)O [Afatinib (BIBW2992) Dimaleate, 2-butenamide, N-[4-[(3-chloro-4-fluorophenyl)amino] 7-[[(3S)-tetrahydro-3-furanyl]oxy]-6-quinazolinyl]-4-(dimethylamino)-,(2E)-, (2Z)-2-butenedioate (1:2)] |  | solubility in water [1]: water soluble
O=C(/C=C/c1ccc(O)c(O)c1)c1ccc(O)cc1O [Butein] | √ | 

More lines, main results first:

EGFR/ErbB1 (EGFR/ErbB1) | Compound | also measured
√ | C=CC(=O)N1CC[C@@H](Oc2nc(Nc3ccc(N4CCC(N5CCN(C)CC5)CC4)cc3)c(C(N)=O)nc2CC)C1 [Naquotinib(ASP8273), Naquotinib] | 
√ | C=CC(=O)Nc1cccc(Oc2nc(Nc3ccc(N4CCN(C)CC4)cc3)nc3ccsc23)c1 [Olmutinib (HM61713, BI 1482694), Olmutinib] | 
√ | C=CC(=O)Nc1cccc(Sc2nc(Nc3ccc(N4CCN(C)CC4)cc3)ncc2Cl)c1 [WZ8040] | 
